Results on three compounds are retold here after patent EP0322251A2, “Benzothiopyran derivatives” (BEECHAM GROUP PLC, priority 1987, dated 1989).

The subject of the test is Spontaneously hypertensive rats. As to the kind of experiment: Blood pressure lowering activity, tail cuff method. The class given is in vivo. The method, then: Blood Pressure Lowering Activity
Systolic blood pressures were recorded by a modification of the tail cuff method described by I.M. Claxton, M.G. Palfreyman, R.H. Poyser, R.L. Whiting, European Journal of Pharmacology, 37, 179 (1976). A W+W BP recorder, model 8005 was used to display pulses. Prior to all measurements rats were placed in a heated environment (33.5 ± 0.5°C) before transfer to a restraining cage. Each determination of blood pressure was the mean of at least 6 readings. Spontaneously hypertensive rats (ages 12-18 weeks) with systolic blood pressures >180 mmHg were considered hypertensive.

As to `Cc1ccc2c(c1)[C@@H](N1CCCCC1=O)[C@H](O)C(C)(C)S2(=O)=O` (relative stereo) [Example 3, Trans 3.4-dihydro-4-(2-oxopiperidin-1-yl)-2,2,6-trimethyl-2H-1-benzothiapyran-3-ol-1,1-dioxide], the “% Change in Systolic Blood Pressure” value (dose 30 mg/kg, 1 hour post dose) is recorded as -25 (n=2) %; the “% Change in Systolic Blood Pressure” value (dose 30 mg/kg, 2 hours post dose) is listed as -31 ± 7 (n=3) %; the “% Change in Systolic Blood Pressure” value (dose 30 mg/kg, 4 hours post dose) is -16 ± 2 (n=3) %; the “% Change in Systolic Blood Pressure” value (dose 30 mg/kg, 6 hours post dose) is recorded as -14 ± 3 (n=3) %.

`Cc1ccc2c(c1)C(N1CCCCC1=O)[C@H](O)C(C)(C)S2` (stereo partly drawn) [Example 1, Trans 3,4-Dihydro-4-(2-oxopiperidin-1-yl)-2,2,6-trimethyl-2H-1-benzothiapyran-3-ol]: the “% Change in Systolic Blood Pressure” value (dose 1 mg/kg, 1 hour post dose) is recorded as -22 ± 5 (n=6) %; the “% Change in Systolic Blood Pressure” value (dose 1 mg/kg, 2 hours post dose) is given as -17 ± 6 (n=6) %; the “% Change in Systolic Blood Pressure” value (dose 1 mg/kg, 4 hours post dose) is -12 ± 11 (n=6) %.

As for `Cc1ccc2c(c1)C(N1CCCC1=O)=CC(C)(C)S2(=O)=O` [Example 2, 4-(2-Oxopyrrolidin-1-yl)-2,2,6-trimethyl-2H-1-benzothiapyran-1,1-dioxide], the “% Change in Systolic Blood Pressure” value is reported as -50 ± 2 (n=5) % (dose 10 mg/kg, 1 hour post dose); -34 ± 4 (n=5) % (dose 10 mg/kg, 2 hours post dose); -22 ± 3 (n=4) % (dose 10 mg/kg, 4 hours post dose); -15 ± 2 (n=4) % (dose 10 mg/kg, 6 hours post dose).
